Test results published in US20050288347A1, “Certain triazole-based compounds, compositions, and uses thereof” (priority 2004, published 2005).
“Also recorded” adds a separate entry of the source.

Tested on: protein kinase
Experiment: HTS ATP-utilizing enzyme assay, off-chip mobility-shift format (Caliper HTS 250)
Type: biochemical, human
Settings: test compound 10 μM; for protein kinase against which the compound exhibits inhibitory activity (Table 3): active = activity greater than three-sigma from the mean of the predominately inactive population for that enzyme; for Kinase: kinase(s) for which the compound exhibits protein kinase inhibitory activity, active = greater than three-sigma from the mean activity of inactive compounds
Summary of the method: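 Kinase reactions ran 2.5 h at 20 to 22 °C with test compound at 10 μM, in a HEPES pH 7.5 master buffer containing Triton X-100 and BSA. Peptide substrate and phosphorylated product separated by mobility shift; inhibition normalized to DMSO (0%) and EDTA (100%) controls, with three-sigma thresholds for hits.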

| SMILES | protein kinase against which the compound exhibits inhibitory activity (Table 3) | Kinase |
| --- | --- | --- |
| Cc1cc(C)nc(SCc2nnc(SCC(=O)NNC(=O)c3ccccc3O)n2-c2ccccc2)n1 | FYN and SRC and HCK | – |
| Cc1nnc(SCc2cccc3ccccc23)[nH]1 [3-methyl-5-(naphthalen-1-ylmethylthio)-4H-1,2,4-triazole] | AURORA-A; also recorded: DYRK2; also recorded: GSK3-α | – |
| CCn1c(SCC(=O)OC)nnc1-c1ccccc1 [methyl 2-(4-ethyl-5-phenyl-4H-1,2,4-triazol-3-ylthio)acetate] | – | MAPKAPK-2 |
| CCn1c(CNc2ccccc2Cl)nnc1SCCN1CCCCC1 | MAPKAPK-2 | – |
| Cc1ccc(S(=O)(=O)Nc2ccc(-c3nnc(S)n3C)cc2)cc1 | – | AURORA-A; also recorded: CDK2-cyclinA; also recorded: CHEK2 |
| COc1ccc(-n2c(COc3cccc4ccccc34)nnc2SCC#N)cc1 | – | MAPKAPK-2 and CDK1 |
| O=C(CSc1nnc(-c2ccc([N+](=O)[O-])cc2)n1/C=C/CN1CCOCC1)N1CCOCC1 | – | FYN |
| CCn1c(SCC(=O)Nc2cc(C)ccc2OC)nnc1-c1ccc(S(=O)(=O)N2CCCCCC2)cc1 | – | DAPK1 |
| Cc1ccc(NC(=O)C(C)Sc2nnc(-c3ccc(O)cc3)n2-c2ccccc2)cc1 (stereo not drawn) | – | HCK |
| CCn1c(S)nnc1CSc1nc(C)cc(C)n1 [5-((4,6-dimethylpyrimidin-2-ylthio)methyl)-4-ethyl-4H-1,2,4-triazole-3-thiol] | – | GSK3-α |
| COc1ccc(-c2nnc(SCCN3CCCCC3)[nH]2)cc1 [1-(2-(5-(4-methoxyphenyl)-4H-1,2,4-triazol-3-ylthio)ethyl)piperidine] | GSK3-α; also recorded: DYRK2; also recorded: GSK3-β | – |
| Cc1ccc(CSc2nnc(-c3ccncc3)n2-c2ccccc2)cc1 [4-(5-(4-methylbenzylthio)-4-phenyl-4H-1,2,4-triazol-3-yl)pyridine] | AURORA-A | – |
| Cc1ccc(S(=O)(=O)N(Cc2nnc(SCc3ccc(Cl)cc3Cl)n2-c2ccccc2)c2cccc(Cl)c2)cc1 | LCK | – |
| Oc1cc2ccccc2cc1-c1nnc(S)n1Cc1ccco1 [3-(4-(furan-2-ylmethyl)-5-mercapto-4H-1,2,4-triazol-3-yl)naphthalen-2-ol] | – | AURORA-A |
| Cn1c(SCC(N)=O)nnc1-c1ccc([N+](=O)[O-])cc1 [2-(4-methyl-5-(4-nitrophenyl)-4H-1,2,4-triazol-3-ylthio)acetamide] | – | PDGFRR-α and FYN |
| COc1ccccc1-c1nnc(S)n1Cc1ccccc1 [4-benzyl-5-(2-methoxyphenyl)-4H-1,2,4-triazole-3-thiol] | – | AURORA-A |
| CCOC(=O)c1sc(NC(=O)CSc2nnc(Cn3nnc4ccccc43)n2C)nc1C | – | GSK3-β |
| O=C(O)CSc1nnc(-c2ccc(Cl)c(Cl)c2)[nH]1 [2-(5-(3,4-dichlorophenyl)-4H-1,2,4-triazol-3-ylthio)acetic acid] | – | GSK3-α; also recorded: GSK3-B β; also recorded: AURORA-A |
| COc1ccc(NCc2nnc(S)n2-c2ccc(OC)cc2)cc1 | – | PDGFRR-α; also recorded: AURORA-A; also recorded: GSK3-α |

Next, values leading:

| protein kinase against which the compound exhibits inhibitory activity (Table 3) | Kinase | SMILES |
| --- | --- | --- |
| – | INSR and CHEK1 and FYN | COc1ccc(NCc2nnc(SCC(=O)Nc3ccccc3C)n2C)cc1 |
| – | CHEK2 | CCn1c(CNc2ccc(C)cc2)nnc1SCC(=O)Nc1cccc(Cl)c1 |
| DAPK-1 | – | Cc1ccc(C(=O)NNC(=O)CSc2nnc(Cc3ccccc3)n2Cc2ccccc2)cc1 |
| – | AURORA-A | COC(=O)c1ccccc1NC(=O)CSc1nnc(-c2ccccc2O)n1CCc1ccccc1 |
| AURORA-A | – | COc1ccccc1-n1c(SCc2ccc(C(=O)O)cc2)nnc1-c1cccc(Cl)c1 |
| – | CDK1 | CCn1c(CNc2cccc(Cl)c2)nnc1SCC(=O)Nc1ccc(C(C)=O)cc1 |
| – | CDK2-cyclinE | Cc1cccc(C)c1NC(=O)C(C)Sc1nnc(CNc2ccc(Cl)cc2)n1-c1ccccc1 (stereo not drawn) |
| AURORA-A; also recorded: DYRK2 | – | CCn1c(CNc2ccccc2Cl)nnc1SCC(=O)NNC(=O)c1ccc(OC)cc1 |
